In ChEMBL document CHEMBL3991601, “The target landscape of clinical kinase drugs” (Science, 2017):
Activity calls are given as the source filed them.

Legend:
[1] = target: T1, Mitogen-activated protein kinase kinase kinase kinase 3 (Homo sapiens, UniProt Q8IVH8)
T1 sequence (Q8IVH8 whole entry): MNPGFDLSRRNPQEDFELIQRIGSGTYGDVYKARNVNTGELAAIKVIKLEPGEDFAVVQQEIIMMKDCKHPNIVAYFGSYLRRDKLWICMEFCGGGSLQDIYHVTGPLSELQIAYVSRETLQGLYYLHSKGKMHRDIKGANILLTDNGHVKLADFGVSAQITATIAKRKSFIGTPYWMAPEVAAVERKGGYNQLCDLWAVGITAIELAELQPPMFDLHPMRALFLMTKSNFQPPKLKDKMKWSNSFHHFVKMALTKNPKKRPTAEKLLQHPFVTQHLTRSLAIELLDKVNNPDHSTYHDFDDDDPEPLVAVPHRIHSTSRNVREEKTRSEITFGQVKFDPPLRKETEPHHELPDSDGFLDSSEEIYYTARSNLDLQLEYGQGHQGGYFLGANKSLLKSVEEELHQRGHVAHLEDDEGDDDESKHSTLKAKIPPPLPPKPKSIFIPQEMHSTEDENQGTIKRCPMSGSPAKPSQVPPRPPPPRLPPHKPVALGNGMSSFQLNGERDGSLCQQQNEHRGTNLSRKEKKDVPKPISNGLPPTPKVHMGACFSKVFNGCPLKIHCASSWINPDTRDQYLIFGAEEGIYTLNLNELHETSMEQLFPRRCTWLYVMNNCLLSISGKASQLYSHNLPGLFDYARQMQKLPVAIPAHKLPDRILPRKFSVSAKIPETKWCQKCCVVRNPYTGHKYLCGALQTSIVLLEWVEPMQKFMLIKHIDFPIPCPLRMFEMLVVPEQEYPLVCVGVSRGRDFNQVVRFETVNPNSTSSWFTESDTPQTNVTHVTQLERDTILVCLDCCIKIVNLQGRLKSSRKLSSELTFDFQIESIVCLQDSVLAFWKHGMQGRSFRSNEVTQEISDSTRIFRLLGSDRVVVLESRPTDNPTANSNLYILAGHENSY

[2] = target: T2, Serine/threonine-protein kinase NLK (Homo sapiens, UniProt Q9UBE8)
T2 sequence (Q9UBE8 whole entry): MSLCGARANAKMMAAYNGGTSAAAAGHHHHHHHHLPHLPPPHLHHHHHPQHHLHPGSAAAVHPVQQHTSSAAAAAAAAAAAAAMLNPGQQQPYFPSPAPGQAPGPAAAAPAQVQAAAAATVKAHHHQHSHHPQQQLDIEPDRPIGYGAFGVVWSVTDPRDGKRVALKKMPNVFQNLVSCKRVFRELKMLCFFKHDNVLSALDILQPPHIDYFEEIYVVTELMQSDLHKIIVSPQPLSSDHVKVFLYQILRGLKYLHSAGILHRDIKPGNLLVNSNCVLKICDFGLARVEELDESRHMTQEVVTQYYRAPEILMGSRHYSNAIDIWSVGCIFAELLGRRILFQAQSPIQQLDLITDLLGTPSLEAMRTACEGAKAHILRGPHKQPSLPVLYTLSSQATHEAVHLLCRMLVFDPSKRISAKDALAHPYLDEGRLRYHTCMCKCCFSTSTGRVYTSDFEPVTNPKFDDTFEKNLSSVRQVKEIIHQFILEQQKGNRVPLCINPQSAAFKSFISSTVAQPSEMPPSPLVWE

[3] = target: Mitogen-activated protein kinase 14 (Homo sapiens, UniProt Q16539)
[4] = target: T3, Ras-related protein Rab-27A (Homo sapiens, UniProt P51159)
T3 sequence (P51159 whole entry): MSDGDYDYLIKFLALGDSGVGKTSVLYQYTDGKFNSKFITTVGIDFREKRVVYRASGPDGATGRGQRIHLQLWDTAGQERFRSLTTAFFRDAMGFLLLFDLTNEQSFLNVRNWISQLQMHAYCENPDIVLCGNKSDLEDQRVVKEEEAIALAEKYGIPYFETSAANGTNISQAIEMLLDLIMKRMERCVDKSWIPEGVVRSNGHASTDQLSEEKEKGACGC

[5] = target: T4, Phosphatidylinositol 5-phosphate 4-kinase type-2 alpha (Homo sapiens, UniProt P48426)
T4 sequence (P48426 whole entry): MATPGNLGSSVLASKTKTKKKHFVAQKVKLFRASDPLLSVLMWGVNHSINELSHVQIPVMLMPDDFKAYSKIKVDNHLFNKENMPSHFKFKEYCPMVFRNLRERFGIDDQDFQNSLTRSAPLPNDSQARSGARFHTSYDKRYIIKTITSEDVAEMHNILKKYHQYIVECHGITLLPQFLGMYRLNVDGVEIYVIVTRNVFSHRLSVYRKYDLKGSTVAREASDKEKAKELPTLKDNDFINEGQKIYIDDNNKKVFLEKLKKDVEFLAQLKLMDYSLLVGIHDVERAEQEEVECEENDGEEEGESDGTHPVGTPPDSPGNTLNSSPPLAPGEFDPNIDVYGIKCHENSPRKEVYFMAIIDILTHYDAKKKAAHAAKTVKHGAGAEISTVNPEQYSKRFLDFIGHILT
Further: in the data inactive means no Kd found up to 30 µM.

Chain of Mitogen-activated protein kinase 14 (Q16539 whole entry): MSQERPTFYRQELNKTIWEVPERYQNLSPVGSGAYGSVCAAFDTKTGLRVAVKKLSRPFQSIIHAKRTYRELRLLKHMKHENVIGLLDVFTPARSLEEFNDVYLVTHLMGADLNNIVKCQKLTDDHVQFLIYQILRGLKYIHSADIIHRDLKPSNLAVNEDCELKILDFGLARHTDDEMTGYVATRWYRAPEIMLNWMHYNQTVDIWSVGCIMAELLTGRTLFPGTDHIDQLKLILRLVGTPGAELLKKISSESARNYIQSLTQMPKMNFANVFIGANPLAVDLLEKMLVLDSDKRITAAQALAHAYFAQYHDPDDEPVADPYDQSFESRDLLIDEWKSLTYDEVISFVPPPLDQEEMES

| Kd [1] | Kd [2] | Kd [3] | Kd [4] | Kd [5] | SMILES |
| --- | --- | --- | --- | --- | --- |
| > 30 µM (inactive) | > 30 µM (inactive) | > 30 µM (inactive) | > 30 µM (inactive) |  | Nc1ncnc2c1c(-c1cccc(OCc3ccccc3)c1)cn2[C@H]1C[C@@H](CN2CCC2)C1 [AEW-541] |
| > 30 µM (inactive) | > 30 µM (inactive) | 0.735 µM (active) | > 30 µM (inactive) | > 30 µM (inactive) | Cc1csc(-c2nnc(Nc3ccc(Oc4ncccc4-c4ccnc(N)n4)cc3)c3ccccc23)c1 [AMG-900] |
| > 30 µM (inactive) | > 30 µM (inactive) | > 30 µM (inactive) | > 30 µM (inactive) |  | O=C(Nc1c[nH]nc1-c1nc2cc(CN3CCOCC3)ccc2[nH]1)NC1CC1 [AT-9283] |
|  |  |  | > 30 µM (inactive) | > 30 µM (inactive) | C[C@@H](Oc1cc(-n2cnc3ccc(CN4CCN(C)CC4)cc32)sc1C(N)=O)c1ccccc1C(F)(F)F [GSK-461364] |
|  | > 30 µM (inactive) | 8.5 µM (active) | > 30 µM (inactive) | > 30 µM (inactive) | CCn1cc(-c2ccnc3[nH]c(-c4cccc(CN(C)C)c4)cc23)c(-c2ccc(NC(=O)N(C)C)cc2)n1 [GSK-1070916] |
|  | > 30 µM (inactive) |  | > 30 µM (inactive) | > 30 µM (inactive) | NC(=O)c1c(OCc2c(F)cc(Br)cc2F)nsc1NC(=O)NCCCCN1CCCC1 [OSI-632] |
| 0.766 µM (active) | > 30 µM (inactive) |  | > 30 µM (inactive) | > 30 µM (inactive) | CC(=O)NCC(=O)N1[C@@H]2CC[C@H]1c1ccc(Nc3ncc(C(F)(F)F)c(NC4CCC4)n3)cc12 [PF-03814735] |
|  |  |  | > 30 µM (inactive) | > 30 µM (inactive) | O=C(NOCCO)c1cc(CN2OCCCC2=O)c(F)c(F)c1Nc1ccc(I)cc1F [RO-4987655] |
| 0.526 µM (active) | > 30 µM (inactive) | > 30 µM (inactive) | > 30 µM (inactive) |  | CC(C)c1cc(CNc2nc(Nc3cc(C4CC4)[nH]n3)cc(N3CCN(C)CC3)n2)on1 [XL-228] |

Second part, the molecule before the results:

| SMILES | Kd [1] | Kd [2] | Kd [3] | Kd [4] | Kd [5] |
| --- | --- | --- | --- | --- | --- |
| C[C@@H](Oc1cc(C(=O)Nc2ccc(C(=O)N3CCN(C)CC3)cc2)nnc1N)c1c(Cl)ccc(F)c1Cl | > 30 µM (inactive) | > 30 µM (inactive) | > 30 µM (inactive) | > 30 µM (inactive) |  |
| C[C@H]1CNCCCN1S(=O)(=O)c1cccc2cncc(F)c12 | 3.22 µM | > 30 µM (inactive) | > 30 µM (inactive) | > 30 µM (inactive) |  |
| CC(=O)c1cnc2ccc(-c3cc(Cl)c(O)c(Cl)c3)nc2c1N[C@H]1CC[C@H](CN(C)C)CC1 | > 30 µM (inactive) | 0.024 µM (active) | > 30 µM (inactive) | > 30 µM (inactive) | > 30 µM (inactive) |
| CCNC(=O)C#Cc1ccc2c(c1)NC(=O)/C2=C(\Nc1ccc(CN(C)C)cc1)c1ccccc1 | > 30 µM (inactive) | > 30 µM (inactive) | > 30 µM (inactive) | > 30 µM (inactive) | > 30 µM (inactive) |
| C=CC(=O)N1CCC[C@H](n2c(=O)n(-c3ccc(Oc4ccccc4)cc3)c3c(N)ncnc32)C1 | > 30 µM (inactive) | > 30 µM (inactive) | > 30 µM (inactive) | > 30 µM (inactive) | > 30 µM (inactive) |
| Cc1nc2cc(-c3nn(C(C)C)c4ncnc(N)c34)ccc2o1 | > 30 µM (inactive) | 0.449 µM (active) | > 30 µM (inactive) | > 30 µM (inactive) | > 30 µM (inactive) |
| COCc1c(-c2ccc(NC(=O)Nc3cc(C(F)(F)F)ccc3F)c(F)c2)c2c(N)ncnn2c1CN1CCOCC1 | > 30 µM (inactive) | > 30 µM (inactive) | > 30 µM (inactive) | > 30 µM (inactive) | > 30 µM (inactive) |
| COc1cc(Nc2ncc3c(n2)-c2ccc(Cl)cc2C(c2c(F)cccc2OC)=NC3)ccc1C(=O)O [ALISERTIB] | > 30 µM (inactive) | > 30 µM (inactive) |  | > 30 µM (inactive) | > 30 µM (inactive) |
| Cc1nc(NC(=O)N2CCC[C@H]2C(N)=O)sc1-c1ccnc(C(C)(C)C(F)(F)F)c1 [ALPELISIB] | > 30 µM (inactive) |  | > 30 µM (inactive) |  |  |
| C=CC(=O)Nc1cc2c(Nc3ccc(F)c(Cl)c3)ncnc2cc1C#CC(C)(C)N1CCN(C)CC1 [AV-412 FREE BASE] | > 30 µM (inactive) | > 30 µM (inactive) | > 30 µM (inactive) | > 30 µM (inactive) | > 30 µM (inactive) |
| CNC(=O)c1ccccc1Sc1ccc2c(/C=C/c3ccccn3)n[nH]c2c1 [AXITINIB] |  |  |  | > 30 µM (inactive) | > 30 µM (inactive) |
| COc1cc([C@@H]2c3cc4c(cc3[C@H](O)[C@H]3COC(=O)[C@@H]23)OCO4)cc(OC)c1OC [AXL-1717] | > 30 µM (inactive) | > 30 µM (inactive) | > 30 µM (inactive) | > 30 µM (inactive) | > 30 µM (inactive) |
| CC(C)(C)c1nc(-c2cccc(NS(=O)(=O)c3c(F)cccc3F)c2F)c(-c2ccnc(N)n2)s1 [DABRAFENIB] | > 30 µM (inactive) | > 30 µM (inactive) |  | > 30 µM (inactive) | > 30 µM (inactive) |
| Cn1cc(C2=C(c3cn(C4CCN(Cc5ccccn5)CC4)c4ccccc34)C(=O)NC2=O)c2ccccc21 [ENZASTAURIN] |  |  |  | > 30 µM (inactive) | > 30 µM (inactive) |
| Cc1nc2cc(-n3ncc(C(=O)c4cc5ccccc5[nH]4)c3N)ccc2[nH]1 [FGFR INHIBITOR DEBIO 1347] | > 30 µM (inactive) | > 30 µM (inactive) | > 30 µM (inactive) | > 30 µM (inactive) |  |
| FC(F)(F)c1ccc(/C=C/c2nc(COc3ccc(CCCCn4ccnn4)cc3)co2)cc1 [MUBRITINIB] | > 30 µM (inactive) | > 30 µM (inactive) | > 30 µM (inactive) | > 30 µM (inactive) |  |
| Cc1[nH]c(/C=C2\C(=O)Nc3ccccc32)c(C)c1CCC(=O)O [ORANTINIB] |  | > 30 µM (inactive) | > 30 µM (inactive) | > 30 µM (inactive) | > 30 µM (inactive) |
| CCCCCCCCCCCCCCCCCCOP(=O)([O-])OC1CC[N+](C)(C)CC1 [PERIFOSINE] | > 30 µM (inactive) | > 30 µM (inactive) |  | > 30 µM (inactive) |  |
| Cc1cnc(NC(=O)Nc2cc(Br)c(C)cc2OC[C@@H]2CNCCO2)cn1 [RABUSERTIB] | > 30 µM (inactive) | > 30 µM (inactive) | > 30 µM (inactive) | > 30 µM (inactive) |  |
| N#CC[C@H](C1CCCC1)n1cc(-c2ncnc3[nH]ccc23)cn1 [RUXOLITINIB] |  |  |  | > 30 µM (inactive) | > 30 µM (inactive) |
| O=C1NC(=O)[C@@H](c2cn3c4c(cccc24)CCC3)[C@@H]1c1c[nH]c2ccccc12 [TIVANTINIB] | > 30 µM (inactive) | > 30 µM (inactive) | > 30 µM (inactive) | > 30 µM (inactive) |  |
| C[C@@H](N)c1ccc(C(=O)Nc2ccnc3[nH]ccc23)cc1 [Y-39983] | > 30 µM (inactive) | > 30 µM (inactive) |  | > 30 µM (inactive) | > 30 µM (inactive) |
